Results on 28 molecules are retold here after patent publication US20260022094A1, “Compounds for the Treatment of Neurodegenerative Diseases” (Celgene Corporation, priority 2022, published 2026).

The assay concerns the target T1, S1P5 receptors (Homo sapiens, UniProt Q9H228).
T1 construct: expressed in transfected cells; host or cells: CHO cells (membranes)
Kind of assay: [35S]-GTPγS binding assay on CHO-S1P5 membranes (S1P5 agonism). Format: biochemical. Conditions: membranes of CHO cells expressing recombinant S1P5; measure of S1P5 agonism. The protocol:
CHO cells expressing recombinant S1P5 receptors were cultured in 500 cm^2 culture trays and, once confluent, rinsed and detached with cell-lifting buffer (10 mM HEPES, 154 mM NaCl, 6.85 mM EDTA, pH 7.4). Cells were then pelleted by centrifugation, resuspended, and homogenized in membrane preparation buffer (10 mM HEPES and 10 mM EDTA, pH 7.4) using a Polytron PT 1200E homogenizer (Kinematica, Luzern, Switzerland). Cellular proteins were pelleted by centrifugation at 48,000×g at 4° C. for 30 minutes. The resulting supernatant was discarded, and the pellet was re-suspended again in membrane preparation buffer, homogenized for a second time, and then centrifuged again as described above. The final cellular protein pellet was suspended in ice cold resuspension buffer (10 mM HEPES and 0.1 mM EDTA, pH 7.4), divided into aliquots, and stored at −80° C. until use.
Functional binding assays for [^35S]-GTPγS were performed in 96-well non-binding surface plates with a final volume of 200 μL. The test compounds were serially diluted in DMSO and added to assay plates using a Tecan D300E digital printer with a total volume of 0.4 μL. The control sphingosine-1-phosphate (SIP) was prepared separately by preparing a 400 µM stock solution from a 100 nmol pellet of S1P in 10 mM Na2CO3 with 2% β-cyclodextrin. The serial dilution of S1P was done using complete assay buffer (20 mM HEPES, 10 mM MgCl2, 100 mM NaCl, 1 mM EDTA, 0.1% fatty acid free bovine serum albumin (BSA), and 30 μg/mL saponin, pH 7.4) and transferred to wells already containing 0.4 μL DMSO. All the wells were then loaded to a total volume of 40 μL of complete assay buffer, except the non-specific binding (NSB) wells. For NSB wells, 40 μL/well of 50 μM GTPγS (Sigma Aldrich, cat #G8634, St. Louis, MO) was added to wells containing 0.4 μL of DMSO. The assay was started by the addition of 120 μL/well of CHO-SIP receptor membrane solution containing 40 μg/mL of membrane protein, 16.67 μM guanosine diphosphate (GDP; Sigma Aldrich, cat #G7127, St. Louis, MO), and 2.5 mg/mL of WGA PVT SPA beads in complete buffer. Assay plates were then sealed and incubated at room temperature with gentle agitation for 30 minutes. Next, 40 μL/well of 1 nM of [^35S]-GTPγS (PerkinElmer, cat #NEG030X^250UC, Waltham, MA) in basic assay buffer (20 mM HEPES, 10 mM MgCl2, 100 mM NaCl, and 1 mM EDTA, pH7.4) was added to the assay plates to yield a final concentration of […] and the plates were further incubated for 40 minutes at room temperature with gentle agitation. The assay was terminated by centrifugation of the plates at 1000 rpm for 3 minutes using an Eppendorf 5810R centrifuge (Eppendorf, Hamburg, Germany) and G protein bound radioactivity was quantitated using a MicroBeta2 microplate scintillation counter (PerkinElmer, Waltham, MA). As G protein bound radioactivity directly correlates to receptor activation and coupling to the G protein, this assay is a measure of S1P5 agonism.

T1 sequence (Q9H228 whole entry): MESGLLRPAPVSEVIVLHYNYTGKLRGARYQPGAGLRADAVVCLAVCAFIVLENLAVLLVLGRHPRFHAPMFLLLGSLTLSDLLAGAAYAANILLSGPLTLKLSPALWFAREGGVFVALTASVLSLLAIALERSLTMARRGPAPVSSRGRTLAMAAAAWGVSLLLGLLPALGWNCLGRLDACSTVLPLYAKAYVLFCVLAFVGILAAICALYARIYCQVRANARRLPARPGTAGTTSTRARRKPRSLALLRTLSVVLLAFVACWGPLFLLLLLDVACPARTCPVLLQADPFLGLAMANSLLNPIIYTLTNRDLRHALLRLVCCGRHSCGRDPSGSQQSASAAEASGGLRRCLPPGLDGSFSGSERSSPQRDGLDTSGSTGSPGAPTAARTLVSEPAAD

As for `CC1(O)CN(C2CCc3cc(C#Cc4ccccc4F)ccc32)C1` (single isomer, unassigned) [Compound 1a, 1-[5-[2-(2-fluorophenyl)ethynyl]indan-1-yl]-3-methyl-azetidin-3-ol], the EC50 was 10 to 100 nM.
Take `CC1(O)CN(C2CCc3cc(C#Cc4ccccc4F)ccc32)C1` (single isomer, unassigned) [Compound 1b, 1-[5-[2-(2-fluorophenyl)ethynyl]indan-1-yl]-3-methyl-azetidin-3-ol]: the EC50 fell in the range of 10 to 100 nM.
Take `CC1(O)CN(C2CCc3cc(C#Cc4cccc(F)c4)ccc32)C1` (single isomer, unassigned) [Compound 2a, 1-[5-[2-(3-fluorophenyl)ethynyl]indan-1-yl]-3-methyl-azetidin-3-ol]: the EC50 lay within 100 to 1000 nM.
With `CC1(O)CN(C2CCc3cc(C#Cc4cccc(F)c4)ccc32)C1` (single isomer, unassigned) [Compound 2b, 1-[5-[2-(3-fluorophenyl)ethynyl]indan-1-yl]-3-methyl-azetidin-3-ol] the figure was 10 to 100 nM; with `CC1(O)CN(C2CCc3cc(OCc4c(Cl)cccc4Cl)ccc32)C1` (single isomer, unassigned) [Compound 3a, 1-(5-((2,6-dichlorobenzyl)oxy)-2,3-dihydro-1H-inden-1-yl)-3-methylazetidin-3-ol], 1 to 10 nM.
`CC1(O)CN(C2CCc3cc(OCc4c(Cl)cccc4Cl)ccc32)C1` (single isomer, unassigned) [Compound 3b, 1-(5-((2,6-dichlorobenzyl)oxy)-2,3-dihydro-1H-inden-1-yl)-3-methylazetidin-3-ol]: the EC50 is 10 to 100 nM.
Regarding `CC1(O)CN(C2CCc3cc(-c4ccc(C5CC5)c(F)c4)ccc32)C1` (single isomer, unassigned) [Compound 4a, 1-(5-(4-cyclopropyl-3-fluorophenyl)-2,3-dihydro-1H-inden-1-yl)-3-methyl azetidin-3-ol], the half-maximal effective concentration (EC50) lay in the range of 10 to 100 nM.
With `CC1(O)CN(C2CCc3cc(-c4ccc(C5CC5)c(F)c4)ccc32)C1` (single isomer, unassigned) [Compound 4b, 1-(5-(4-cyclopropyl-3-fluorophenyl)-2,3-dihydro-1H-inden-1-yl)-3-methyl azetidin-3-ol], the EC50 fell in the range of 100 to 1000 nM.
Consider `CC1(O)CN(C2CCc3cc(-c4ccc(C5CC5)c(Cl)c4)ccc32)C1` (single isomer, unassigned) [Compound 5a, 1-[5-(3-chloro-4-cyclopropyl-phenyl)indan-1-yl]-3-methyl-azetidin-3-ol], for which the EC50 lay within 10 to 100 nM.
In the case of `CC1(O)CN(C2CCc3cc(-c4ccc(C5CC5)c(Cl)c4)ccc32)C1` (single isomer, unassigned) [Compound 5b, 1-[5-(3-chloro-4-cyclopropyl-phenyl)indan-1-yl]-3-methyl-azetidin-3-ol], the EC50 lay in the range of 10 to 100 nM.
Take `Cc1cc(-c2ccc(C3CC3)c(Cl)c2)cc2c1C(N1CC(C)(O)C1)CC2` (single isomer, unassigned) [Compound 10a, 1-[5-(3-chloro-4-cyclopropyl-phenyl)-7-methyl-indan-1-yl]-3-methyl-azetidin-3-ol]: the EC50 fell in the range of 1 to 10 nM.
Consider `Cc1cc(-c2ccc(C3CC3)c(Cl)c2)cc2c1C(N1CC(C)(O)C1)CC2` (single isomer, unassigned) [Compound 10b, 1-[5-(3-chloro-4-cyclopropyl-phenyl)-7-methyl-indan-1-yl]-3-methyl-azetidin-3-ol], for which the EC50 was 1 to 10 nM.
Take `Cc1cc(C#Cc2cccc(F)c2)cc2c1C(N1CC(C)(O)C1)CC2` (single isomer, unassigned) [Compound 13a, 1-[5-[2-(3-fluorophenyl)ethynyl]-7-methyl-indan-1-yl]-3-methyl-azetidin-3-ol]: the concentration giving a half-maximal response (EC50) fell in the range of 10 to 100 nM.
On to `Cc1cc(C#Cc2cccc(F)c2)cc2c1C(N1CC(C)(O)C1)CC2` (single isomer, unassigned) [Compound 13b, 1-[5-[2-(3-fluorophenyl)ethynyl]-7-methyl-indan-1-yl]-3-methyl-azetidin-3-ol], for which the EC50 lay within 10 to 100 nM.
Consider `Cc1cc(CCc2c(Cl)cccc2Cl)cc2c1C(N1CC(C)(O)C1)CC2` (single isomer, unassigned) [Compound 14a, 1-[5-[2-(2,6-dichlorophenyl)ethyl]-7-methyl-indan-1-yl]-3-methyl-azetidin-3-ol], for which the EC50 was in the range of 1 to 10 nM.
As to `Cc1cc(CCc2c(Cl)cccc2Cl)cc2c1C(N1CC(C)(O)C1)CC2` (single isomer, unassigned) [Compound 14b, 1-[5-[2-(2,6-dichlorophenyl)ethyl]-7-methyl-indan-1-yl]-3-methyl-azetidin-3-ol], the EC50 fell in the range of 1 to 10 nM.
With `Cc1cc(OCc2c(Cl)cccc2Cl)cc2c1C(N1CC(C)(O)C1)CC2` (single isomer, unassigned) [Compound 15a, 1-[5-[(2,6-dichlorophenyl)methoxy]-7-methyl-indan-1-yl]-3-methyl-azetidin-3-ol] the figure was 1 to 10 nM; with `Cc1cc(OCc2c(Cl)cccc2Cl)cc2c1C(N1CC(C)(O)C1)CC2` (single isomer, unassigned) [Compound 15b, 1-[5-[(2,6-dichlorophenyl)methoxy]-7-methyl-indan-1-yl]-3-methyl-azetidin-3-ol], 1 to 10 nM; with `Cc1c(-c2ccc(C3CC3)c(Cl)c2)ccc2c1CCC2N1CC(C)(O)C1` (single isomer, unassigned) [Compound 16a, 1-[5-(3-chloro-4-cyclopropyl-phenyl)-4-methyl-indan-1-yl]-3-methyl-azetidin-3-ol], 1 to 10 nM.
As for `Cc1c(-c2ccc(C3CC3)c(Cl)c2)ccc2c1CCC2N1CC(C)(O)C1` (single isomer, unassigned) [Compound 16b, 1-[5-(3-chloro-4-cyclopropyl-phenyl)-4-methyl-indan-1-yl]-3-methyl-azetidin-3-ol], the EC50 lay in the range of 1 to 10 nM.
On to `Cc1c(C#Cc2cccc(F)c2)ccc2c1CCC2N1CC(C)(O)C1` (single isomer, unassigned) [Compound 17a, 1-[5-[2-(3-fluorophenyl)ethynyl]-4-methyl-indan-1-yl]-3-methyl-azetidin-3-ol], for which the EC50 was 10 to 100 nM.
For the molecule `Cc1c(C#Cc2cccc(F)c2)ccc2c1CCC2N1CC(C)(O)C1` (single isomer, unassigned) [Compound 17b, 1-[5-[2-(3-fluorophenyl)ethynyl]-4-methyl-indan-1-yl]-3-methyl-azetidin-3-ol], the EC50 is 10 to 100 nM.
For `Cc1c(CCc2c(Cl)cccc2Cl)ccc2c1CCC2N1CC(C)(O)C1` (single isomer, unassigned) [Compound 18a, 1-[5-[2-(2,6-dichlorophenyl)ethyl]-4-methyl-indan-1-yl]-3-methyl-azetidin-3-ol], the EC50 was in the range of 1 to 10 nM.
On to `Cc1c(CCc2c(Cl)cccc2Cl)ccc2c1CCC2N1CC(C)(O)C1` (single isomer, unassigned) [Compound 18b, 1-[5-[2-(2,6-dichlorophenyl)ethyl]-4-methyl-indan-1-yl]-3-methyl-azetidin-3-ol], for which the EC50 was 1 to 10 nM.
`Cc1c(OCc2c(Cl)cccc2Cl)ccc2c1CCC2N1CC(C)(O)C1` (single isomer, unassigned) [Compound 19a, 1-[5-[(2,6-dichlorophenyl)methoxy]-4-methyl-indan-1-yl]-3-methyl-azetidin-3-ol]: the EC50 fell in the range of 1 to 10 nM.
As to `Cc1c(OCc2c(Cl)cccc2Cl)ccc2c1CCC2N1CC(C)(O)C1` (single isomer, unassigned) [Compound 19b, 1-[5-[(2,6-dichlorophenyl)methoxy]-4-methyl-indan-1-yl]-3-methyl-azetidin-3-ol], the EC50 was 1 to 10 nM.
For the molecule `Cc1c(OCc2c(Cl)cccc2Cl)ccc2c1CCC2NCC(C)(C)O` (single isomer, unassigned) [Compound 20a, 1-((5-((2,6-dichlorobenzyl)oxy)-4-methyl-2,3-dihydro-1H-inden-1-yl)amino)-2-methylpropan-2-ol], the EC50 lay within 10 to 100 nM.
With `Cc1c(OCc2c(Cl)cccc2Cl)ccc2c1CCC2NCC(C)(C)O` (single isomer, unassigned) [Compound 20b, 1-((5-((2,6-dichlorobenzyl)oxy)-4-methyl-2,3-dihydro-1H-inden-1-yl)amino)-2-methylpropan-2-ol] the figure was 100 to 1000 nM.
